Reference: patent US20140255476A1, “COMPOSITIONS, DEVICES, AND METHODS FOR TREATING INFECTIONS” (University of Washington through its Center for …, priority 2011, published 2014)

Tests used:
[1] = test system: XL-1 antibiotic resistant bacteria; settings: 30 and 60 mg/ml, 16 hr and 40 hr
Experimental: FIGS. 11A-11D are images of agar plates seeded with XL-1 antibiotic resistant bacteria comparing the effectiveness of sodium hypochlorite (11A and 11C) and calcium hypochlorite (11B and 11D) at 16 hr (11A and 11B) and 40 hr (11C and 11D). Sodium hypochlorite (11A and 11C): 0, water; 1 30 mg/ml with alginate; 2, 60 mg/ml with alginate; 3, 60 mg/ml without alginate; 4, 30 mg/ml without alginate. Calcium hypochlorite (11B and 11D): 0, water; 1 25 mg/ml with alginate; 2, 50 mg/ml with alginate; 3, 50 mg/ml without alginate; 4, 25 mg/ml without alginate.

onychomycosis = settings: topical formulations; do not penetrate the nail; cited from earlier work
[2] = decomposition of calcium hypochlorite under ambient light; format: physicochemical; settings: 200 mg/ml, 37° C., without stabilization in alginate-calcium hydrogel
Experimental: In one embodiment, the interactions of calcium hypochlorite and alginate control the release of chlorine over time, which allows prolonged and continuous exposure. Without stabilization of calcium hypochlorite in alginate-calcium hydrogel, calcium hypochlorite at a concentration of 200 mg/ml is decomposed under ambient light within 30 min at 37° C. In a composition containing 1% alginate tested at room temperature (without exposing to light), about 40-50% of chlorine was released over 2 hr test period for all calcium hypochlorite concentrations tested (FIG. 2). […] It is understood that the physical structure of the gel can take the form of particles, sheets, or appropriate structure to optimize the surface suitable for release of the active hypohalite form.

Compound	effectiveness for onychomycosis (onychomycosis)	further results
sodium chlorite	–	effectiveness with vs without alginate [1]: not affected by the presence of alginate
CN(C/C=C/C#CC(C)(C)C)Cc1cccc2ccccc12 [terbinafine]	totally ineffective	–
[Ca+2].[O-]Cl.[O-]Cl [calcium hypochlorite]	–	time to decomposition [2]: ≤ 30 min
Clc1ccccc1C(c1ccccc1)(c1ccccc1)n1ccnc1 [clotrimazole]	totally ineffective	–
